Assay results reported in patent US20260176252A1, “IONIZABLE LIPIDS WITH BRANCHED HEAD GROUPS” (Beam Therapeutics Inc., priority 2023, published 2026).

Columns and labels:
[1] = Encapsulation efficiency of LNP preparations (unlysed and lysed LNPs); type: physicochemical; conditions: for AVG EE(%): Table A, LNP 47.5% Ionizable Lipid:40% cholesterol:2.5% PEG-2000 DMG:10% DPSC, N/P 4.5-6, NA cargo with barcode
Description: Concentration of NA is determined by Qubit microRNA kit (for siRNA) or HS RNA kit (for mRNA) per manufacturer's instructions. Encapsulation efficiency is determined by measuring unlysed and lysed LNPs.

[2] = pKa of LNP preparations via TNS assay; type: physicochemical; conditions: Table D; LNP formulation ratio 47.5:40:2.5:10
Description: (§1) LNP preparations are formed by microfluidic mixing of the lipid and NA solutions using a Precision Nanosystems NanoAssemblr Ignite Instrument, according to the manufacturer's protocol. A 3:1 ratio of aqueous to organic solvent is maintained during mixing using differential flow rates. After mixing, LNP preparations are collected, diluted in PBS (approximately 2:1 v/v), and further buffer exchange is conducted using dialysis in PBS at 4° C. for 8 to 24 hours against a 20 kDa filter. After this initial dialysis, each individual LNP preparation is characterized via dynamic light scattering (DLS) to measure size and polydispersity. pKa of a subpopulation of LNP preparations is measured via TNS assay. After dialysis, LNP preparations are sterile filtered using 0.22 micron sterile filter and stored at 4° C. for further use. In some embodiments, LNP preparations may be concentrated using 100 kDa Amicon filters per manufacturer's protocol.

[3] = Dynamic light scattering (DLS) of LNP preparations: size (diameter) and polydispersity; type: physicochemical; conditions: for AVG PDI / AVG Z Dia (nm): Table A, LNP 47.5% Ionizable Lipid:40% cholesterol:2.5% PEG-2000 DMG:10% DPSC, N/P 4.5-6
Description: A ratio of aqueous to organic solvent of approximately 2:1 or 3:1 was maintained during mixing using differential flow rates. After mixing, LNP preparations were collected, diluted in phosphate buffer saline (PBS) or Tris-buffered saline (TBS) (approximately 1:1 v/v). Further buffer exchange was conducted using dialysis in PBS or TBS at 4° C. for 4 to 24 hours against a 20 kDa filter. After this initial dialysis, each individual LNP preparation may be characterized via dynamic light scattering (DLS) to measure the size (e.g., diameter) and polydispersity. LNP preparations falling within specific diameter and polydispersity ranges were pooled, and further dialyzed against PBS or TBS at 4° C. for 1 to 4 hours against a 100 kDa dialysis cassette. After the second dialysis, LNP preparations were sterile filtered using 0.22 μm filter and stored at 4° C. for further use.
as §1
DLS-LNP preparation hydrodynamic diameter and polydispersity index (PDI) is measured using high throughput dynamic light scattering (DLS) (DynaPro plate reader II, Wyatt). LNP preparations are diluted 1×PBS to an appropriate concentration and analyzed.

ALAS1 target site = assay: In vivo base editing with LNP-delivered ABE mRNA and sgRNA targeting ALAS1; conditions: Balb/c mice, IV tail vein, 4 days after dosing; for Quadracept Editing A->G (%): ALAS1, Quadracept (muscle); for Liver Editing A->G (%): ALAS1, liver
Description: Exemplary LNP preparations are selected to determine each preparation's ability to perform base editing in a Balb/C mouse model as described herein.
Lipid nanoparticle components are dissolved in 100% ethanol at specified lipid component molar ratios. mRNA encoding an adenine base editor and a chemically-modified sgRNA is dissolved at a mass ratio of 1:1 in 10 mM citrate, 100 mM NaCl, pH 4.0, resulting in a concentration of NA cargo of approximately 0.22 mg/mL. LNP preparations are formulated with molar ratios of either 50% Ionizable Lipid:38.5% Cholesterol:1.5% PEG2000-DMG: 10% DSPC or 47.5% Ionizable Lipid:40% Cholesterol:2.5% PEG2000-DMG: 10% DSPC both at a total lipid to NA molar ratio of 6.
as §1
Male Balb/C mice aged approximately 8-12 weeks are used in the experiments described herein. Each mouse is temporarily restrained, and LNP preparations are administered IV via tail vein injection. Age-matched mice are also used to administer vehicle (1×PBS) via tail vein injection as a control. Four to six days post-dose, tissues including liver, spleen, heart and muscle are collected (only liver and muscle (quardracept) are reported). Genomic DNA is isolated and fragmented and adapter-ligated using the Nextera DNA Flex Library Prep Kit (Illumina) using the 96-well plate Nextera indexing primers (Illumina), according to the manufacturer's instructions. Library size and concentration is confirmed by Fragment Analyzer (Agilent) and sent to Novogene for whole genome sequencing using an Illumina HiSeq.
For base editing, mRNA encoding an adenine base editor (ABE) and a guide RNA (sgRNA) targeting ALAS1 at 1:1 (mass ratio) are coencapsulated in LNP preparations as described herein. LNP preparations are administrated into Balb/c mice through tail vein injections at concentrations ranging from 0.05 to 3.0 mg/kg total RNA. At 4 days after dosing, mice are euthanized and liver, spleen and bone barrow are harvested. Base editing is determined by performing targeted deep sequencing analysis at the ALAS1 target site using extracted genomic DNA.

[4] = Table D, LNP formulation ratio 47.5:40:2.5:10, ABE mRNA + PCSK9 sgRNA 1:1
[5] = Table C, LNP formulation ratio 47.5:40:2.5:10, ABE mRNA + ALAS1 sgRNA 1:1

| EE (%) [1, 4] | pKa [2] | Diameter (nm) [3, 4] | EE (%) [1, 5] | Diameter (nm) [3, 5] | PDI (%) [3, 5] | Compound | also measured |
| --- | --- | --- | --- | --- | --- | --- | --- |
| 85.3% | 6.85 | 148.65 nm |  |  |  | CCCCCCC(CCC(=O)OCC(COC(=O)CCCCCC(=O)OCCC(C)CCC=C(C)C)COC(=O)CCCCCC(=O)OCCC(C)CCC=C(C)C)OC(=O)NCCN1CCCC1 (stereo not shown) [Example 9, 1-(3,7-dimethyloct-6-en-1-yl) 7-[3-({7-[(3,7-dimethyloct-6-en-1-yl)oxy]-7-oxoheptanoyl}oxy)-2-({[4-({[2-(pyrrolidine-1-yl)ethyl]carbamoyl}oxy)decanoyl]oxy}methyl)propyl]heptanedioate] |  |
| 90.5% | 6.85 | 152.05 nm |  |  |  | CCCCCCC(CCC(=O)OCC(COC(=O)CCCCCC(=O)OC/C=C(/C)CCC=C(C)C)COC(=O)CCCCCC(=O)OC/C=C(/C)CCC=C(C)C)OC(=O)NCCN1CCCC1 (stereo not shown) [Example 11, 1-(2Z)-3,7-dimethylocta-2,6-dien-1-yl-7-{3-[(7-{[(2Z)-3,7-dimethylocta-2,6-dien-1-yl]oxy}-7-oxoheptanoyl)oxy]-2-({[4-({[2-(pyrrolidin-1-yl)ethyl]carbamoyl}oxy)decanoyl]oxy}methyl)propyl}heptanedioate] |  |
| 87.7% | 6.68 | 163 nm |  |  |  | C=C(C)C(CC=C(C)C)COC(=O)CCCCCC(=O)OCC(COC(=O)CCCCCC(=O)OCC(CC=C(C)C)C(=C)C)COC(=O)CCC(CCCCCC)OC(=O)NCCN1CCCC1 (stereo not shown) [Example 12, 1-[5-methyl-2-(prop-1-en-2-yl)hex-4-en-1-yl]-7-(2-{[(7-{[5-methyl-2-(prop-1-en-2-yl)hex-4-en-1-yl]oxy}-7-oxoheptanoyl)oxy]methyl}-3-{[4-({[2-(pyrrolidin-1-yl)ethyl]carbamoyl}oxy)decanoyl]oxy}propyl) heptanedioate] |  |
| 99.1% | 6.814 | 135.28 nm |  |  |  | C=CC(C)(CCC=C(C)C)OC(=O)CCCCCC(=O)OCC(COC(=O)CCCCCC(=O)OC(C)(C=C)CCC=C(C)C)COC(=O)CCC(CCCCCC)OC(=O)NCCN1CCCC1 (stereo not shown) [Example 10, 1-(3,7-dimethylocta-1,6-dien-3-yl)-7-[3-({7-[(3,7-dimethylocta-1,6-dien-3-yl)oxy]-7-oxoheptanoyl}oxy)-2-({[4-({[2-(pyrrolidin-1-yl)ethyl]carbamoyl}oxy)decanoyl]oxy}methyl)propyl]heptanedioate] |  |
| 94.3% | 6.74 | 110.35 nm |  |  |  | CCCCCCC(CCC(=O)OCC(COC(=O)CCCCCC(=O)OCCC(C)CCCC(C)C)COC(=O)CCCCCC(=O)OCCC(C)CCCC(C)C)OC(=O)NCCN1CCCC1 (stereo not shown) [Example 8, 1-(3,7-Dimethyloctyl)-7-[3-({7-[(3,7-dimethyloctyl)oxy]-7-oxoheptanoyl}oxy)-2-({[4-({[2-(pyrrolidin-1-yl)ethyl]carbamoyl}oxy)decanoyl]oxy}methyl)propyl]heptanedioate] |  |

Continued, compound first:

| Compound | EE (%) [1, 4] | pKa [2] | Diameter (nm) [3, 4] | EE (%) [1, 5] | Diameter (nm) [3, 5] | PDI (%) [3, 5] | also measured |
| --- | --- | --- | --- | --- | --- | --- | --- |
| C=CCCCCCC(CCCCCC=C)OC(=O)CCCCCC(=O)OCC(COC(=O)CCCCCC(=O)OC(CCCCCC=C)CCCCCC=C)COC(=O)CCC(CCCCC)OC(=O)NCCN1CCCC1 (stereo not shown) [Example 2, 7,7′-di(pentadeca-1,14-dien-8-yl) O′1,O1-(2-(((4-(((2-(pyrrolidin-1-yl)ethyl)carbamoyl)oxy)nonanoyl)oxy)methyl)propane-1,3-diyl) di(heptanedioate)] |  |  |  | 95.75% | 64.4 nm | 8.2% | AVG EE(%) [1]: 90.7%; AVG PDI [3]: 0.09; AVG Z Dia (nm) [3]: 78.76 nm; Quadracept Editing A->G (%) (ALAS1 target site; Dose 1.5 MPK total RNA): 1.7%; Liver Editing A->G (%) (ALAS1 target site; Dose 1.5 MPK total RNA): 86.3% |
| C=CCCCCCC(CCCCCC=C)COC(=O)CCCCC(=O)OCC(COC(=O)CCCCC(=O)OCC(CCCCCC=C)CCCCCC=C)COC(=O)CCC(CCCCCC)OC(=O)NCCN1CCCC1 (stereo not shown) [Example 5, bis(2-(hept-6-en-1-yl)non-8-en-1-yl) O,O′-(2-(((4-(((2-(pyrrolidin-1-yl)ethyl)carbamoyl)oxy)decanoyl)oxy)methyl)propane-1,3-diyl) diadipate] |  |  |  | 95.84% | 64.5 nm | 8.2% | AVG EE(%) [1]: 93.9%; AVG PDI [3]: 0.08; AVG Z Dia (nm) [3]: 79.74 nm; Quadracept Editing A->G (%) (ALAS1 target site; Dose 1.5 MPK total RNA): 1.5%; Liver Editing A->G (%) (ALAS1 target site; Dose 1.5 MPK total RNA): 79.8% |
| CCCCCCC(CCC(=O)OCC(COC(=O)CCCCCC(=O)OC/C=C(\C)CCC=C(C)C)COC(=O)CCCCCC(=O)OC/C=C(\C)CCC=C(C)C)OC(=O)NCCN1CCCC1 (stereo not shown) [Example 7, 1-(2E)-3,7-dimethylocta-2,6-dien-1-yl 7-{3-[(7-{[(2E)-3,7-dimethylocta-2,6-dien-1-yl]oxy}-7-oxoheptanoyl)oxy]-2-({[4-({[2-(pyrrolidin-1-yl)ethyl]carbamoyl}oxy)decanoyl]oxy}methyl)propyl}heptanedioate] | 91.7% | 7.17 | 134.3 nm |  |  |  |  |
| 7,7′-bis(2-(pent-4-en-1-yl)hept-6-en-1-yl) O′1,O1-(2-(((4-(((2-(pyrrolidin-1-yl)ethyl)carbamoyl)oxy)decanoyl)oxy)methyl)propane-1,3-diyl) di(heptanedioate) [Example 4] |  |  |  | 87.2% | 124.45 nm | 10.6% | Liver Editing A->G (%) (ALAS1 target site; Dose 0.05 MPK total RNA): 1.59% |
| CC/C=C\CCCC(CCC/C=C\CC)OC(=O)CCCCCC(=O)OCC(COC(=O)CCCCCC(=O)OC(CCC/C=C\CC)CCC/C=C\CC)COC(=O)CCC(CCCCCC)OC(=O)NCCN1CCCC1 (stereo not shown) [Example 6, 7,7′-di((3Z,12Z)-pentadeca-3,12-dien-8-yl) O′1,O1-(2-(((4-(((2-(pyrrolidin-1-yl)ethyl)carbamoyl)oxy)decanoyl)oxy)methyl)propane-1,3-diyl) di(heptanedioate)] |  |  |  | 95.5% | 71 nm | 10.8% | Quadracept Editing A->G (%) (ALAS1 target site; Dose 1.5 MPK total RNA): 2.5%; Liver Editing A->G (%) (ALAS1 target site; Dose 1.5 MPK total RNA): 88.7% |
| Bis(2-(pent-4-en-1-yl)hept-6-en-1-yl) O,O′-(2-(((4-(((2-(118yrrolidine-1-yl)ethyl)carbamoyl)oxy)decanoyl)oxy)methyl)propane-1,3-diyl) diadipate [Example 3] |  |  |  | 82.63% | 140.85 nm | 5.5% |  |
